Experimental findings from patent US10576166B2, “Liver specific delivery of messenger RNA” (TRANSLATE BIO, INC., priority 2009, dated 2020) are described below.

In data set [1] the test system is firefly luciferase protein in livers and spleens. Kind of data set: Bioluminescence assay of expressed firefly luciferase in liver and spleen (biodistribution analysis). The format is in vivo. The note with it: female CD-1 mice, single 200 μg i.v. dose of encapsulated FFL mRNA, 4 hours post-injection. The procedure: (§1) All studies were performed using female CD-1 mice of approximately 3-weeks age at the beginning of each experiment. Samples were introduced by a single bolus tail-vein injection of an equivalent total dose of 200 μg of encapsulated FFL mRNA. Four hours post-injection the mice were sacrificed and perfused with saline.
(§2) The liver and spleen of each mouse was harvested, apportioned into three parts, and stored in either, (i) 10% neutral buffered formalin, (ii) snap-frozen and stored at −80° C. for bioluminescence analysis (see below), or for in situ hybridization studies, or (iii) liver sections were isolated in isopentane (2-methylbutane) bath, maintained at −35° C., rinsed with 1×PBS, lightly patted with a kimwipe to remove any excess fluid, placed in the bath for approximately 5-7 minutes, after which the liver was removed, wrapped in foil and stored in a small sterile plastic bag at −80° C. until ready for assay.
The bioluminescence assay was conducted using a Promega Luciferase Assay System (Item # E1500 Promega). […]
The Luciferase Assay Reagent was prepared by adding 10 mL of Luciferase Assay Buffer to Luciferase Assay Substrate and mix via vortex. […] Each plate was inserted into the appropriate chambers using a Molecular Device Flex Station instrument and measure the luminescence (measured in relative light units (RLU)). […]

The subject of data set [2] is codon-optimized firefly luciferase mRNA in liver. In words: In situ hybridization of liver sections with 35S-labeled riboprobes. The note with it: livers of injected animals, 100× magnification, FIG. 4A. Type of data set: in vivo, CD-1 mice. As for the experimental part: as §1, §2
Slide preparation and analysis was performed as follows: Each liver was frozen at −35° C. according to the procedure described above. The frozen livers were cut into 6 micrometer sections and mounted onto glass microscope slides. […]
Photographic development was carried out in Kodak D-19. Sections were counterstained lightly with cresyl violet and analyzed using brightfield and darkfield microscopy. […]

The test system of data set [3] is firefly luciferase protein in hepatocytes. Kind of data set: Immunohistochemical analysis of liver with anti-firefly antibody. The format is in vivo. The conditions noted are these: FFL mRNA in lipid transfer vehicle of cholesterol, DOPE, DLinDMA and DMG-PEG2000; treated mice, FIGS. 5B and 5C. From the text:
FIG. 5 illustrates immunohistochemical staining of mouse livers for the detection of firefly luciferase protein. […] Luciferase protein is observed throughout the cytoplasm of the hepatocytes. The abbreviations (S) and (H) correspond to sinusoidal cells and hepatocytes, respectively.
The FFL mRNA was packaged and delivered via a lipid transfer vehicle formulation consisting of cholesterol, DOPE, DLinDMA, and DMG-PEG2000 in a manner similar to that described supra.
The translation of the FFL mRNA into its respective protein has been successfully identified via immunohistochemical analysis (FIG. 5).

Take `CC(C)CCCC(C)C1CCC2C3CC=C4CC(OC(=O)CCc5cnc[nH]5)CCC4(C)C3CCC12C` [ICE, (3S,10R,13R,17R)-10,13-dimethyl-17-((R)-6-methylheptan-2-yl)-2,3,4,7,8,9,10,11,12,13,14,15,16,17-tetradecahydro-1H-cyclopenta[a]phenanthren-3-yl 3-(1H-imidazol-4-yl)propanoate]: in data set [1], the “Luminescence / mRNA delivery in liver versus spleen” value was “enriched delivery of mRNA to liver versus spleen”.
In the case of “FFL mRNA: Codon-optimized firefly luciferase messenger RNA, SEQ ID NO: 1, with 5′ Cap1 and 3′ poly(A) tail of approximately 200 nucleotides”, the “Detection of FFL mRNA in liver, dark field illumination, antisense probe” value in data set [2] is “detected as bright spots”. The “Detection of expressed firefly protein by immunohistochemistry” value in data set [3] was “can be observed in the hepatocytes of treated mice”.
